Test results: the NIST ThermoML archive (doi:10.1007/s10765-005-5570-x)
Where “and” joins values, the source holds several entries; their conditions need not be identical. Equal entries are not always repeated.

Columns and labels:
[1] = Liquid
[2] = xn = mol fraction of the nth substance listed; conditions: 101.33 kPa, Liquid, x2 = 0

ClCCCl [1,2-dichloroethane]
[1]
Conditions	mass density [kg/m3]
288.15 K, 101.33 kPa	1260.13
298.15 K, 101.33 kPa	1246.59
298.15 K, 200 kPa	1245.68
298.15 K, 500 kPa	1246.02
298.15 K, 1100 kPa	1246.54
298.15 K, 2000 kPa	1247.41
298.15 K, 3100 kPa	1248.51
298.15 K, 4100 kPa	1249.53
298.15 K, 5100 kPa	1250.32
298.15 K, 6100 kPa	1251.22
298.15 K, 7100 kPa	1252.27
298.15 K, 8000 kPa	1253.07
298.15 K, 8900 kPa	1254
298.15 K, 10100 kPa	1255.18
298.15 K, 12000 kPa	1256.96
298.15 K, 13900 kPa	1258.84
298.15 K, 15700 kPa	1260.48
298.15 K, 17700 kPa	1262.37
298.15 K, 19700 kPa	1264.29
308.15 K, 101.33 kPa	1231.27

ClCCBr [1-bromo-2-chloroethane]
[1]
Conditions	mass density [kg/m3]
288.15 K, 101.33 kPa	1744.36
298.15 K, 101.33 kPa	1727.88
298.15 K, 200 kPa	1726.08
298.15 K, 500 kPa	1726.48
298.15 K, 900 kPa	1726.94
298.15 K, 2000 kPa	1728.17
298.15 K, 2900 kPa	1729.14
298.15 K, 4100 kPa	1730.57
298.15 K, 4800 kPa	1731.35
298.15 K, 6000 kPa	1732.77
298.15 K, 6800 kPa	1733.74
298.15 K, 8000 kPa	1735.1
298.15 K, 8700 kPa	1736.13
298.15 K, 9600 kPa	1737.17
298.15 K, 11700 kPa	1739.6
298.15 K, 13900 kPa	1742.49
298.15 K, 15600 kPa	1744.52
298.15 K, 17600 kPa	1747.12
298.15 K, 19400 kPa	1749.48
308.15 K, 101.33 kPa	1708.86

CCOC(C)=O [ethyl acetate] + ClCCBr
[2]
Conditions	mass density [kg/m3]
288.15 K	906.71
298.15 K	894.97
308.15 K	882.27

CCOC(C)=O [ethyl acetate] + ClCCCl
[2]
Conditions	mass density [kg/m3]
288.15 K	906.71
298.15 K	894.97
308.15 K	882.27

CCOC(C)=O [ethyl acetate] + BrCBr
[2]
Conditions	mass density [kg/m3]
288.15 K	906.71
298.15 K	894.97
308.15 K	882.27

CCOC(C)=O [ethyl acetate]
[1]
Conditions	mass density
288.15 K, 101.33 kPa	906.71 kg/m3
298.15 K, 101.33 kPa	894.97 kg/m3
298.15 K, 200 kPa	894.2 kg/m3
298.15 K, 600 kPa	894.65 kg/m3
298.15 K, 1100 kPa	895.18 kg/m3
298.15 K, 2100 kPa	896.14 kg/m3
298.15 K, 2900 kPa	897.1 kg/m3
298.15 K, 4000 kPa	898.2 kg/m3
298.15 K, 5100 kPa	899.22 kg/m3
298.15 K, 6000 kPa	900.19 kg/m3
298.15 K, 7000 kPa	901.11 kg/m3
298.15 K, 8000 kPa	902.12 kg/m3
298.15 K, 8900 kPa	902.88 kg/m3
298.15 K, 9900 kPa	903.88 kg/m3
298.15 K, 11700 kPa	905.54 kg/m3
298.15 K, 13800 kPa	907.54 kg/m3
298.15 K, 16000 kPa	909.45 kg/m3
298.15 K, 17600 kPa	910.84 kg/m3
298.15 K, 19500 kPa	912.59 kg/m3
308.15 K, 101.33 kPa	882.27 kg/m3 and 881.87 kg/m3

ClCBr [bromochloromethane]
[1]
Conditions	mass density [kg/m3]
288.15 K, 101.33 kPa	1945.94
298.15 K, 101.33 kPa	1924.88
298.15 K, 200 kPa	1923.54
298.15 K, 500 kPa	1923.88
298.15 K, 1000 kPa	1924.64
298.15 K, 2100 kPa	1926.24
298.15 K, 2900 kPa	1927.62
298.15 K, 3800 kPa	1928.77
298.15 K, 4900 kPa	1930.51
298.15 K, 5900 kPa	1932.03
298.15 K, 7000 kPa	1933.43
298.15 K, 8000 kPa	1934.88
298.15 K, 8800 kPa	1936.36
298.15 K, 9800 kPa	1937.83
298.15 K, 11800 kPa	1940.79
298.15 K, 13900 kPa	1944.25
298.15 K, 15700 kPa	1947.01
298.15 K, 17800 kPa	1950.26
298.15 K, 19600 kPa	1953.16
308.15 K, 101.33 kPa	1900.86

CCOC(C)=O [ethyl acetate] + ClCBr
[2]
Conditions	mass density [kg/m3]
288.15 K	906.71
298.15 K	894.97
308.15 K	881.87

BrCBr [dibromomethane]
[1]
Conditions	mass density [kg/m3]
288.15 K, 101.33 kPa	2501.88
298.15 K, 101.33 kPa	2478.37
298.15 K, 200 kPa	2477.56
298.15 K, 300 kPa	2477.92
298.15 K, 600 kPa	2478.35
298.15 K, 1000 kPa	2478.9
298.15 K, 2100 kPa	2480.41
298.15 K, 3000 kPa	2481.88
298.15 K, 4100 kPa	2483.5
298.15 K, 5000 kPa	2484.84
298.15 K, 5900 kPa	2486.26
298.15 K, 6900 kPa	2487.82
298.15 K, 8000 kPa	2489.54
298.15 K, 8800 kPa	2490.92
298.15 K, 9800 kPa	2492.58
298.15 K, 11800 kPa	2494.98
298.15 K, 13700 kPa	2498.59
298.15 K, 15800 kPa	2502.33
298.15 K, 15900 kPa	2502.49
298.15 K, 17700 kPa	2505.74
298.15 K, 19200 kPa	2508.69
298.15 K, 19300 kPa	2508.84
308.15 K, 101.33 kPa	2451.74
